The source made the active and inactive calls. No cut-off for these calls is given here.
How the values were obtained:
[1] = target: T1, Adrenergic receptor alpha-1 (Rattus norvegicus, UniProt P15823+P23944+P43140); assay: Binding affinity against alpha-1-adrenoceptor in rat brain homogenates [3H]-prazosin displacement.; type: tissue-based
T1 sequence (P15823 whole entry): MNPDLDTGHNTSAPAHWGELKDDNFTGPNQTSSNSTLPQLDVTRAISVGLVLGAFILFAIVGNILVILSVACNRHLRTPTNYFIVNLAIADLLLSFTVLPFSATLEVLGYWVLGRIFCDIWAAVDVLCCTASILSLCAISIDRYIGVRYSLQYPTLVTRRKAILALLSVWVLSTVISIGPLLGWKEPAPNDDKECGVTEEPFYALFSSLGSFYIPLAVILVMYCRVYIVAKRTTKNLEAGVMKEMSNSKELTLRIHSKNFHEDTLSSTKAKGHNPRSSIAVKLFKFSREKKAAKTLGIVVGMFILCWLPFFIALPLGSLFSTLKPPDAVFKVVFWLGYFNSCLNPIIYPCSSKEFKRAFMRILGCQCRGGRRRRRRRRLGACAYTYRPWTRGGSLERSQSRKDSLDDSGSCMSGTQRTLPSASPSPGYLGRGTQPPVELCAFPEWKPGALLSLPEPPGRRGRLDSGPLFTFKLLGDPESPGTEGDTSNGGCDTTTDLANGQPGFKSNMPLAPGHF
T1 sequence (P23944 whole entry): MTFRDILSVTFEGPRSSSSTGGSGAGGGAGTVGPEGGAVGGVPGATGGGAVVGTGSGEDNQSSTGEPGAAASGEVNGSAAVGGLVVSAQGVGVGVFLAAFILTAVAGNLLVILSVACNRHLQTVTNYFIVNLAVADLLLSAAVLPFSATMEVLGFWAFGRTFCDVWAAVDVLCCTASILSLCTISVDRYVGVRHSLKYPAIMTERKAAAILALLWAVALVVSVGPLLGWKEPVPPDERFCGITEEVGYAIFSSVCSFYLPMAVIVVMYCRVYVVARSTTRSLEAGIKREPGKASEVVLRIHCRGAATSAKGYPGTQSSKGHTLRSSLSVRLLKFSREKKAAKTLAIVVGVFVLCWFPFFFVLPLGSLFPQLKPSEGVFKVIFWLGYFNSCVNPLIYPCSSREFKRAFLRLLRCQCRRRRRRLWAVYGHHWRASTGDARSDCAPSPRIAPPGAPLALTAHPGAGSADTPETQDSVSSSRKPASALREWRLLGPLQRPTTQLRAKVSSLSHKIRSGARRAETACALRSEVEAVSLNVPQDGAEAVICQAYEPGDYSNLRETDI
T1 sequence (P43140 whole entry): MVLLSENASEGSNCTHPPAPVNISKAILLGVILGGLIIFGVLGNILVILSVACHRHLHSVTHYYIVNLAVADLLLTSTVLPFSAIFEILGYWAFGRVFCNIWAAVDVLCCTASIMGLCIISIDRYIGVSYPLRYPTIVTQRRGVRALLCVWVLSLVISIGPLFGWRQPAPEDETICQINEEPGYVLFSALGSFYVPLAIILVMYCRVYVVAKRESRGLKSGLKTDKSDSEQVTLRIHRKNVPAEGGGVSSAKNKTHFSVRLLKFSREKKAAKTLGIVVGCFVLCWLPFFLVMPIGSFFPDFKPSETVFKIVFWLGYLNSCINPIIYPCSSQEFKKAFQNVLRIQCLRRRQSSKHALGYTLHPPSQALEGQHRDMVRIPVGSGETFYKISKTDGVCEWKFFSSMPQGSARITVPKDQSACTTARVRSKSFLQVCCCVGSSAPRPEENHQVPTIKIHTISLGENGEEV

[2] = test system: Rattus norvegicus; assay: Antihypertensive activity was determined by percent reduction in blood pressure after 6 hr upon peroral administration of 5 mg/kg dose in spontaneously hypertensive rats(SHR).; type: functional; settings: route oral
[3] = target: T2, Adrenergic receptor alpha-2 (Rattus norvegicus) (UniProt P22086+P19328+P22909); assay: Percent displacement of [3H]clonidine from alpha-2-adrenoceptor in rat brain homogenates at 10E-6 M; Activity of less than 50%.; type: tissue-based
[4] = test system: Rattus norvegicus; assay: Antihypertensive activity was determined by percent reduction in blood pressure after 1 hr upon peroral administration of 5 mg/kg dose in spontaneously hypertensive rats(SHR); not significant because of blood pressure falls below 10%; type: functional; settings: route oral
[5] = test system: Rattus norvegicus; assay: Antihypertensive activity was determined by percent reduction in blood pressure after 1 hr upon peroral administration of 5 mg/kg dose in spontaneously hypertensive rats(SHR).; type: functional; settings: route oral
[6] = test system: Rattus norvegicus; assay: Antihypertensive activity was determined by percent reduction in blood pressure after 4 hr upon peroral administration of 3 mg/kg dose in spontaneously hypertensive rats(SHR).; type: functional; settings: route oral
[7] = target: T2, Adrenergic receptor alpha-2 (Rattus norvegicus); assay: Percent displacement of [3H]clonidine to alpha-2-adrenoceptor was determined in rat brain homogenates at 10E-6 M; type: tissue-based
[8] = test system: Rattus norvegicus; assay: Antihypertensive activity was determined by percent reduction in blood pressure after 6 hr upon peroral administration of 5 mg/kg dose in spontaneously hypertensive rats(SHR); not significant because of blood pressure falls below 10%; type: functional; settings: route oral

Row | SMILES | Ki [1] | Displacement [3] | Displacement [7] | Reduction [2] | Reduction [4] | Reduction [5] | Reduction [6] | Reduction [8]
1 | COc1cc2nc(N3CCN(c4cnccn4)CC3)nc(N)c2cc1OC | 0.18 nM | inactive | – | – | 7% | – | – | 8%
2 | COc1cc2nc(N3CCN(c4cc(OC(C)C)ncn4)CC3)nc(N)c2cc1OC | 0.18 nM | inactive | – | 49% | – | 55% | – | –
3 | COc1cc2nc(N3CCN(c4nc(Oc5ccccc5)nc(Oc5ccccc5)n4)CC3)nc(N)c2cc1OC | 0.87 nM | inactive | – | – | 9% | – | – | 8%
4 | COc1cc2nc(N3CCN(c4ccc(OC(C)C)nn4)CC3)nc(N)c2cc1OC | 0.29 nM | inactive | – | – | – | 39% | 33% | –
5 | COc1cc2nc(N3CCN(c4nccc(-c5ccccc5)n4)CC3)nc(N)c2cc1OC | 1.66 nM | inactive | – | 17% | – | 17% | – | –
6 | COc1cc2nc(N3CCN(c4cc(N(C)C)ncn4)CC3)nc(N)c2cc1OC | – | – | – | 18% | 8% | – | – | –
7 | COc1nc(OC)nc(N2CCN(c3nc(N)c4cc(OC)c(OC)cc4n3)CC2)n1 | 0.08 nM | inactive | – | 22% | – | 15% | – | –
8 | CCCOc1cc(N2CCN(c3nc(N)c4cc(OC)c(OC)cc4n3)CC2)ncn1 | 0.36 nM | inactive | – | 22% | – | 39% | – | –
9 | COc1cc2nc(N3CCN(c4nc(N)nc(N)n4)CC3)nc(N)c2cc1OC | 0.47 nM | inactive | – | 12% | 2% | – | – | –
10 | COc1cc2nc(N3CCN(C(=O)c4ccco4)CC3)nc(N)c2cc1OC [PRAZOSIN] | – | – | – | 29% | – | 33% | – | –
11 | COc1cc2nc(N3CCN(c4ccnc(Oc5ccccc5)n4)CC3)nc(N)c2cc1OC | 0.24 nM | inactive | – | 24% | – | 19% | – | –
12 | COc1cc2nc(N3CCN(c4cccnn4)CC3)nc(N)c2cc1OC | 0.4 nM | inactive | – | – | – | 22% | 20% | –
13 | COc1cc2nc(N3CCN(c4ccnc(N5CCOCC5)n4)CC3)nc(N)c2cc1OC | 0.31 nM | inactive | – | – | – | 16% | 43% | –

Now from value to compound, other results behind:

Row | Ki [1] | Displacement [3] | Displacement [7] | SMILES | Reduction [2] | Reduction [4] | Reduction [5] | Reduction [6] | Reduction [8]
14 | 0.27 nM | inactive | – | COc1cc2nc(N3CCN(c4nccc(N(C)C)n4)CC3)nc(N)c2cc1OC | 13% | 7% | – | – | –
15 | 0.27 nM | inactive | – | COc1cc2nc(N3CCN(c4ccncn4)CC3)nc(N)c2cc1OC | – | – | 21% | 12% | –
16 | 0.16 nM | – | 54.2% | COc1cc(N2CCN(c3nc(N)c4cc(OC)c(OC)cc4n3)CC2)nc(OC)n1 | 20% | – | 22% | – | –
17 | 0.92 nM | inactive | – | COc1cc2nc(N3CCN(c4nccc(C)n4)CC3)nc(N)c2cc1OC | 15% | – | 28% | – | –
18 | 0.32 nM | inactive | – | CCCOc1ccnc(N2CCN(c3nc(N)c4cc(OC)c(OC)cc4n3)CC2)n1 | 22% | – | 34% | – | –
19 | 0.26 nM | inactive | – | COc1cc2nc(N3CCN(c4ncccn4)CC3)nc(N)c2cc1OC | 28% | – | 40% | – | –
20 | 0.19 nM | inactive | – | COc1ccnc(N2CCN(c3nc(N)c4cc(OC)c(OC)cc4n3)CC2)n1 | 14% | – | 15% | – | –
